Among the data in patent US7759356B2, “Arylindenopyridines and arylindenopyrimidines and related therapeutic and prophylactic methods” (Janssen Pharmaceutica, N.V., priority 2002, dated 2010) are Ki values, retold here.

For test [1], the target named is T1, human A2a adenosine receptor (Homo sapiens, UniProt P29274).
T1 construct: purchased PerkinElmer RB-HA2a; host or cells: HEK293 cell plasma membranes
The test is described as follows: Ligand binding assay for adenosine A2a receptor ([3H]CGS21680, HEK293 membranes). To be noted: radioligand [3H]CGS21680, HEK293 plasma membrane. As to the method: Ligand Binding Assay for Adenosine A2a Receptor
Ligand binding assay of adenosine A2a receptor was performed using plasma membrane of HEK293 cells containing human A2a adenosine receptor (PerkinElmer, RB-HA2a) and radioligand [^3H]CGS21680 (PerkinElmer, NET1021). Assay was set up in 96-well polypropylene plate in total volume of 200 μL by sequentially adding 20 μL1:20 diluted membrane, 130 μL assay buffer (50 mM Tris.HCl, pH7.4 10 mM MgCl2, 1 mM EDTA) containing [^3H] […] Nonspecific binding was determined by […] NECA. Reaction was carried out at room temperature for 2 hours before filtering through 96-well GF/C filter plate pre-soaked in 50 mM Tris.HCl, pH7.4 containing 0.3% polyethylenimine. Plates were then washed 5 times with cold 50 mM Tris.HCl, pH7.4, dried and sealed at the bottom. Microscintillation fluid 30 μl was added to each well and the top sealed. Plates were counted on Packard Topcount for [^3H]. Data was analyzed in Microsoft Excel and GraphPad Prism programs.

Test [2] addresses T2, human adenosine A2a receptors (Homo sapiens, UniProt P29274).
T2 construct: expressed in transfected cells; host or cells: CHO-K1 cells with cAMP-inducible beta-galactosidase reporter gene
The test is described as follows: Adenosine A2a receptor functional assay (antagonist mode, cAMP-inducible beta-galactosidase reporter, CHO-K1 cells, 50 nM NECA). In kind it is cell-based. To be noted: read-out: Ki A2a antagonist function. Here is the method:
Adenosine A2a Receptor Functional Assay
CHO—K1 cells overexpressing human adenosine A2a receptors and containing cAMP-inducible beta-galactosidase reporter gene were seeded at 40-50K/well into 96-well tissue culture plates and cultured for two days. On assay day, cells were washed once with 200 μL assay medium (F-12 nutrient mixture/0.1% BSA). For agonist assay, adenosine A2a receptor agonist NECA was subsequently added and cell incubated at 37° C., 5% CO2 for 5 hrs before stopping reaction. In the case of antagonist assay, cells were incubated with antagonists for 5 minutes at R.T. followed by addition of 50 nM NECA. Cells were then incubated at 37° C., 5% CO2 for 5 hrs before stopping experiments by washing cells with PBS twice. 50 μL 1× lysis buffer (Promega, 5× stock solution, needs to be diluted to 1× before use) was added to each well and plates frozen at −20° C. For β-galactosidase enzyme colorimetric assay, plates were thawed out at room temperature and 50 μL 2× assay buffer (Promega) added to each well. Color was allowed to develop at 37° C. for 1 h or until reasonable signal appeared. Reaction was then stopped with 150 μL 1M sodium carbonate. […] Data was analyzed in Microsoft Excel and GraphPad Prism programs.

The target in a further test is T3, A1 (Homo sapiens, UniProt P30542).
T3 sequence (P30542 1-326): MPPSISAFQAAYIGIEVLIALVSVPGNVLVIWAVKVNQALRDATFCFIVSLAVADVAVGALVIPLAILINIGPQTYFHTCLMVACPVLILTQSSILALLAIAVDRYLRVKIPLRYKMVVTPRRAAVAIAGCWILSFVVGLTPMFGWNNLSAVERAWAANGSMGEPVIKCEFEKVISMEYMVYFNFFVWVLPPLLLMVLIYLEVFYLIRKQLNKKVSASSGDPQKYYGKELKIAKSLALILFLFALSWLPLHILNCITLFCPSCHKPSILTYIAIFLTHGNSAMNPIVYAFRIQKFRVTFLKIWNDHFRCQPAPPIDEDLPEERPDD
In words: A1 antagonist function. In kind it is cell-based.

Where only a bound is given, the exact number is not on record here.

T1 sequence (P29274 whole entry): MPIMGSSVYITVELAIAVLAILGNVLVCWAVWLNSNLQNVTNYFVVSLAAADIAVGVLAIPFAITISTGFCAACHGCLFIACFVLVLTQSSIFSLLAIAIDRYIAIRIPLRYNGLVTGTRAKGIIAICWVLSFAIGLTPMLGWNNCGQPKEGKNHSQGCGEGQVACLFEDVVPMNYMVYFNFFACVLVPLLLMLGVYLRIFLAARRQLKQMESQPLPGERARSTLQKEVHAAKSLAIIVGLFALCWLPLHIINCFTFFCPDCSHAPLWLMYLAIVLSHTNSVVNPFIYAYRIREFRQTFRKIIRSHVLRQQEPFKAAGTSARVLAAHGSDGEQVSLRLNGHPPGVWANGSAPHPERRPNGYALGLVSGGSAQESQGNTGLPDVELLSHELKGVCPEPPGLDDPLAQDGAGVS
T2 sequence (P29274 whole entry): as above

For the compound `CC(O)C(O)c1cccc2c1-c1nc(N)nc(-c3ccccc3)c1C2=O` (stereo not drawn) [Compound 33], the inhibition constant Ki (in general, the dissociation constant of the complex between target and ligand, obtained from inhibition or displacement) in test [1] was determined as 0.175 nM; in test [2], 0.34 nM; at A1 it was 0.021 nM. In turn, `CN(C)CCOC(=O)c1c(N)nc(-c2ccsc2)c2c1-c1ccccc1C2=O` [Compound 93] had a Ki in test [1] of 64 nM. For the compound `C[C@@H](CN(C)C)OC(=O)c1c(N)nc(-c2ccco2)c2c1-c1ccccc1C2=O` [Compound 96], the Ki was determined as 48.5 nM in test [1], 10.1 nM in test [2] and 52.5 nM at A1. Consider `CC(CN(C)C)NC(=O)c1c(N)nc(-c2ccco2)c2c1-c1ccccc1C2=O` (stereo not drawn) [Compound 78, 9H-indeno[2,1-c]pyridine-4-carboxylic acid, 3-amino-1-furan-2-yl-9-oxo-, (2-dimethylamino-1-methyl-ethyl)-amide], for which, at A1, the Ki was greater than 500 nM.

Regarding `CN1CCN(Cc2cccc3c2C(=O)c2c(-c4ccccc4)nc(N)nc2-3)CC1` [Compound 50], in test [1], the affinity, expressed as Ki, was 80.2 nM. In turn, `CS(=O)(=O)c1nc(N)nc2c1C(=O)c1ccccc1-2` [Compound 40, 2-Amino-4-methanesulfonyl-indeno[1,2-d]pyrimidin-5-one] yielded a Ki in test [1] of 2720 nM.

In test [1], `COc1ccc(-c2nc(N)nc3c2C(=O)c2ccccc2-3)cn1` [Compound 30] displayed a Ki of 31.6 nM. As for `Nc1nc(-c2ccco2)c2c(n1)-c1cccc(N)c1C2=O` [Compound 20], the Ki in test [1] stood at 0.05 nM; in test [2], 0.126 nM; at A1 it was 0.91 nM. The compound `CN(C)CCN(C)C(=O)c1c(N)nc(-c2ccco2)c2c1-c1ccccc1C2=O` [Compound 77, 9H-indeno[2,1-c]pyridine-4-carboxylic acid, 3-amino-1-furan-2-yl-9-oxo-, (2-dimethylamino-ethyl)-methyl-amide] showed a Ki on A1 greater than 500 nM. Take `Nc1nc(-c2ccccc2)c2c(n1)-c1cccc(CN3CCN(CCO)CC3)c1C2=O` [Compound 58]: the Ki in test [1] is 30.6 nM; in test [2], 11.7 nM; on A1, 61 nM.
